Assay results published in patent US8535903B2, “Nitroreductase enzymatic substrates” (BioMerieux, S.A., priority 2009, dated 2013).

Tests used:
Assay in all cases: Detection of nitroreductase activity on Columbia medium with substrate
Format in all cases: cell-based
Conditions in all cases: 24 hours at 37° C.
[1] = tested on: Candida albicans ATCC 90 028; set-up: key to Growth: NG: no growth; 0.5: low growth; 1: moderate growth; 2: good growth; key to Col. (color of the colonies) / Fluo. (fluorescence of the colonies): —: no color/fluorescence
Experimental: (§1) 40 mg of substrate were dissolved in 4 ml of dimethylsulfoxide and added to 400 ml of previously autoclaved Columbia medium. The medium was distributed in Petri dishes 90 mm in diameter at the rate of 20 ml per dish. Seventeen strains of microorganisms obtained from collections and belonging to various species of bacteria and yeasts are inoculated as spots of about 10 000 colony forming units. The media are incubated for 24 hours at 37° C. and then the colonies formed are examined visually and under a UV lamp at 365 nm.

[2] = tested on: Staphylococcus epidermidis NCTC 11 047; set-up: key to Growth: NG: no growth; 0.5: low growth; 1: moderate growth; 2: good growth; key to Col. (color of the colonies) / Fluo. (fluorescence of the colonies): —: no color/fluorescence
Experimental: as §1

[3] = tested on: Staphylococcus aureus NCTC 6 571; set-up: key to Growth: NG: no growth; 0.5: low growth; 1: moderate growth; 2: good growth; key to Col. (color of the colonies) / Fluo. (fluorescence of the colonies): —: no color/fluorescence
Experimental: as §1

[4] = tested on: Staphylococcus aureus NCTC 11 939; set-up: key to Growth: NG: no growth; 0.5: low growth; 1: moderate growth; 2: good growth; key to Col. (color of the colonies) / Fluo. (fluorescence of the colonies): —: no color/fluorescence
Experimental: as §1

[5] = tested on: Candida glabrata NCPF 3 943; set-up: key to Growth: NG: no growth; 0.5: low growth; 1: moderate growth; 2: good growth; key to Col. (color of the colonies) / Fluo. (fluorescence of the colonies): —: no color/fluorescence
Experimental: as §1

[6] = tested on: Pseudomonas aeruginosa NCTC 10 662; set-up: key to Growth: NG: no growth; 0.5: low growth; 1: moderate growth; 2: good growth; key to Col. (color of the colonies) / Fluo. (fluorescence of the colonies): —: no color/fluorescence
Experimental: as §1

[7] = tested on: Enterococcus faecalis NCTC 775; set-up: key to Growth: NG: no growth; 0.5: low growth; 1: moderate growth; 2: good growth; key to Col. (color of the colonies) / Fluo. (fluorescence of the colonies): —: no color/fluorescence
Experimental: as §1

[8] = tested on: Yersinia enterocolitica NCTC 11 176; set-up: key to Growth: NG: no growth; 0.5: low growth; 1: moderate growth; 2: good growth; key to Col. (color of the colonies) / Fluo. (fluorescence of the colonies): —: no color/fluorescence
Experimental: as §1

[9] = tested on: Listeria monocytogenes NCTC 11 994; set-up: key to Growth: NG: no growth; 0.5: low growth; 1: moderate growth; 2: good growth; key to Col. (color of the colonies) / Fluo. (fluorescence of the colonies): —: no color/fluorescence
Experimental: as §1

[10] = tested on: Enterococcus faecium NCTC 7 171; set-up: key to Growth: NG: no growth; 0.5: low growth; 1: moderate growth; 2: good growth; key to Col. (color of the colonies) / Fluo. (fluorescence of the colonies): —: no color/fluorescence
Experimental: as §1

[11] = tested on: Bacillus subtilis NCTC 9 372; set-up: key to Growth: NG: no growth; 0.5: low growth; 1: moderate growth; 2: good growth; key to Col. (color of the colonies) / Fluo. (fluorescence of the colonies): —: no color/fluorescence
Experimental: as §1

[12] = tested on: Streptococcus pyogenes NCTC 8 306; set-up: key to Growth: NG: no growth; 0.5: low growth; 1: moderate growth; 2: good growth; key to Col. (color of the colonies) / Fluo. (fluorescence of the colonies): —: no color/fluorescence
Experimental: as §1

[13] = tested on: Salmonella typhimurium NCTC 74; set-up: key to Growth: NG: no growth; 0.5: low growth; 1: moderate growth; 2: good growth; key to Col. (color of the colonies) / Fluo. (fluorescence of the colonies): —: no color/fluorescence
Experimental: as §1

[14] = tested on: Serratia marcescens NCTC 10 211; set-up: key to Growth: NG: no growth; 0.5: low growth; 1: moderate growth; 2: good growth; key to Col. (color of the colonies): —: no color/fluorescence
Experimental: as §1

[15] = tested on: Escherichia coli NCTC 10 418; set-up: key to Growth: NG: no growth; 0.5: low growth; 1: moderate growth; 2: good growth; key to Col. (color of the colonies): —: no color/fluorescence
Experimental: as §1

[16] = tested on: Enterobacter cloacae NCTC 11 936; set-up: key to Growth: NG: no growth; 0.5: low growth; 1: moderate growth; 2: good growth; key to Col. (color of the colonies): —: no color/fluorescence
Experimental: as §1

[17] = tested on: Providencia rettgeri NCTC 7 475; set-up: key to Growth: NG: no growth; 0.5: low growth; 1: moderate growth; 2: good growth; key to Col. (color of the colonies): —: no color/fluorescence
Experimental: as §1

[18] = 40 mg substrate in 400 ml Columbia medium

Compound: O=[N+]([O-])c1ccc(C=Cc2ccncc2)cc1 [4NSP, 4,4′-Nitrostyrylpyridine]
- Growth [1, 18]: NG
- Fluo. (fluorescence of the colonies) ([1]; UV lamp at 365 nm): —
- Col. (color of the colonies) ([1]; examined visually): —
- Growth [2, 18]: 0.5
- Fluo. (fluorescence of the colonies) ([2]; UV lamp at 365 nm): —
- Col. (color of the colonies) ([2]; examined visually): —
- Growth [3, 18]: 1
- Fluo. (fluorescence of the colonies) ([3]; UV lamp at 365 nm): —
- Col. (color of the colonies) ([3]; examined visually): —
- Growth [4, 18]: 1
- Fluo. (fluorescence of the colonies) ([4]; UV lamp at 365 nm): —
- Col. (color of the colonies) ([4]; examined visually): —
- Growth [5, 18]: 1
- Fluo. (fluorescence of the colonies) ([5]; UV lamp at 365 nm): —
- Col. (color of the colonies) ([5]; examined visually): —
- Growth [6, 18]: 2
- Fluo. (fluorescence of the colonies) ([6]; UV lamp at 365 nm): —
- Col. (color of the colonies) ([6]; examined visually): —
- Growth [7, 18]: 1
- Fluo. (fluorescence of the colonies) ([7]; UV lamp at 365 nm): —
- Col. (color of the colonies) ([7]; examined visually): —
- Growth [8, 18]: 2
- Fluo. (fluorescence of the colonies) ([8]; UV lamp at 365 nm): —
- Col. (color of the colonies) ([8]; examined visually): —
- Growth [9, 18]: 1
- Fluo. (fluorescence of the colonies) ([9]; UV lamp at 365 nm): —
- Col. (color of the colonies) ([9]; examined visually): —
- Growth [10, 18]: 1
- Fluo. (fluorescence of the colonies) ([10]; UV lamp at 365 nm): —
- Col. (color of the colonies) ([10]; examined visually): —
- Growth [11, 18]: NG
- Fluo. (fluorescence of the colonies) ([11]; UV lamp at 365 nm): —
- Col. (color of the colonies) ([11]; examined visually): —
- Growth [12, 18]: 1
- Fluo. (fluorescence of the colonies) ([12]; UV lamp at 365 nm): —
- Col. (color of the colonies) ([12]; examined visually): —
- Growth [13, 18]: 0.5
- Fluo. (fluorescence of the colonies) ([13]; UV lamp at 365 nm): —
- Col. (color of the colonies) ([13]; examined visually): —
- Growth [14, 18]: 2
- Fluo. (fluorescence of the colonies) ([14]; UV lamp at 365 nm): Yellow
- Col. (color of the colonies) ([14]; examined visually): —
- Growth [15, 18]: 2
- Fluo. (fluorescence of the colonies) ([15]; UV lamp at 365 nm): Yellow
- Col. (color of the colonies) ([15]; examined visually): —
- Growth [16, 18]: 2
- Fluo. (fluorescence of the colonies) ([16]; UV lamp at 365 nm): Yellow
- Col. (color of the colonies) ([16]; examined visually): —
- Growth [17, 18]: 2
- Fluo. (fluorescence of the colonies) ([17]; UV lamp at 365 nm): Pale yellow
- Col. (color of the colonies) ([17]; examined visually): —
